As usually defined, the IC50 is the midpoint of a concentration-inhibition curve.

Results on 15 molecules are retold here after US8613914B2, “Peptidomimetic sulfamide compounds and antiviral uses thereof” (Novartis AG, priority 2009, dated 2013).

The experiment concerns the target HCV NS3-4A serine protease (full-length NS3-4A protein) (Hepatitis C virus genotype 1a (isolate 1) (HCV), UniProt P26664). Description: HCV NS3-4A protease assay. Type of experiment: biochemical, HCV genotype 1a. To be noted: strain HCV-1, fluorogenic peptide substrate, read-out: Protease assay Ex. 12 IC50. The method, then:
The inhibitory activity of certain compounds of Table A against HCV NS3-4A serine protease is determined in a homogenous assay using the full-length NS3-4A protein (genotype 1a, strain HCV-1) and a commercially available internally-quenched fluorogenic peptide substrate as described by Taliani, M., et al. 1996 Anal. Biochem. 240:60-67, which is incorporated by reference in its entirety.

Sequence of HCV NS3-4A serine protease (full-length NS3-4A protein) (P26664 1027-1657): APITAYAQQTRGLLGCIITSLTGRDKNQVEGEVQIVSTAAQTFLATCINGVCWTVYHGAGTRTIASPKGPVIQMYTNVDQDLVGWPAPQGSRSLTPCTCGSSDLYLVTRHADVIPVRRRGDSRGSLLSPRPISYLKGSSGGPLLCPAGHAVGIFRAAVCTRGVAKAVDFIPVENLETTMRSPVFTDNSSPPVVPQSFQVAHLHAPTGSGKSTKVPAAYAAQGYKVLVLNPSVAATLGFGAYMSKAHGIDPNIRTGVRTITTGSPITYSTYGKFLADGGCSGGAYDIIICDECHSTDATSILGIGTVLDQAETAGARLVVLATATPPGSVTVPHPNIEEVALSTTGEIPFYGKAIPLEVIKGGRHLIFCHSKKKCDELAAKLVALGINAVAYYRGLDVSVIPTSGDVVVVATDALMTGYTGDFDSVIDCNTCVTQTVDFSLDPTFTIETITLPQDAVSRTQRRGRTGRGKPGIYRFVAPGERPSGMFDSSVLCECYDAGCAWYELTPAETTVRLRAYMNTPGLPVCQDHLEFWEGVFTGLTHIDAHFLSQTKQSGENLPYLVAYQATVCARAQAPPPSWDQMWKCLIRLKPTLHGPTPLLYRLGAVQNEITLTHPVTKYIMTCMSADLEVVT
Sequence of HCV NS3-4A serine protease (full-length NS3-4A protein) (P26664 1658-1711 partner): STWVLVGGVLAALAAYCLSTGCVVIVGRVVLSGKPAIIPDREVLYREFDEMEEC

`C=C[C@@H]1C[C@]1(NC(=O)[C@@H]1C[C@@]2(CN1C(=O)[C@@H](NC(=O)[C@@H](NC(=O)[C@@H]1CCCCN1C(C)C)C1CCOCC1)C(C)(C)C)C(C)(C)C21CCC1)C(=O)NS(=O)(=O)N1CCCC1` [Compound 44, (5R,8S)-7-[(2S)-2-{[(2S)-2-({[(2S)-1-isopropylpiperidin-2-yl]carbonyl}amino)-2-(tetrahydro-2H-pyran-4-yl)acetyl]amino}-3,3-dimethylbutanoyl]-10,10-dimethyl-N-{(1R,2S)-1-[(pyrrolidin-1-ylsulfonyl)carbamoyl]-2-vinylcyclopropyl}-7-azadispiro[3.0.4.1]decane-8-carboxamide]: the IC50 turned out to be 15 nM. In the case of `C=C[C@@H]1C[C@]1(NC(=O)[C@@H]1C[C@@]2(CN1C(=O)[C@@H](NC(=O)[C@@H](NC(=O)[C@H]1CCN1C(C)C)C(C)(C)C)C(C)(C)C)C(C)(C)C21CCC1)C(=O)NS(=O)(=O)N1CCCC1` [Compound 22, (5R,8S)-7-[(2S)-2-{[(2S)-2-({[(2R)-1-isopropylazetidin-2-yl]carbonyl}amino)-3,3-dimethylbutanoyl]amino}-3,3-dimethylbutanoyl]-10,10-dimethyl-N-{(1R,2S)-1-[(pyrrolidin-1-ylsulfonyl)carbamoyl]-2-vinylcyclopropyl}-7-azadispiro[3.0.4.1]decane-8-carboxamide], the IC50 was 95 nM. As for `C=C[C@@H]1C[C@]1(NC(=O)[C@@H]1C[C@@]2(CN1C(=O)[C@@H](NC(=O)CC1(CC#N)CCCCC1)C(C)(C)C)C(C)(C)C21CCC1)C(=O)NS(=O)(=O)N1CCCC1` [Compound 61, (5R,8S)-7-[(2S)-2-({[1-(cyanomethyl)cyclohexyl]acetyl}amino)-3,3-dimethylbutanoyl]-10,10-dimethyl-N-{(1R,2S)-1-[(pyrrolidin-1-ylsulfonyl)carbamoyl]-2-vinylcyclopropyl}-7-azadispiro[3.0.4.1]decane-8-carboxamide], the IC50 was determined as 750 nM. `C=C[C@@H]1C[C@]1(NC(=O)[C@@H]1C[C@@]2(CN1C(=O)[C@@H](NC(=O)[C@@H](NC(=O)[C@@H]1CCCCN1C(C)C)C1CCCCC1)C(C)(C)C)C(C)(C)C21CCC1)C(=O)NS(=O)(=O)N(CC)C(C)C` [Compound 110, (5R,8S)-7-[(2S)-2-{[(2S)-2-cyclohexyl-2-({[(2S)-1-isopropylpiperidin-2-yl]carbonyl}amino)acetyl]amino}-3,3-dimethylbutanoyl]-N-[(1R,2S)-1-({[ethyl(isopropyl)amino]sulfonyl}carbamoyl)-2-vinylcyclopropyl]-10,10-dimethyl-7-azadispiro[3.0.4.1]decane-8-carboxamide]: the half-maximal inhibitory concentration (IC50) was found to be 8 nM. As to `C=C[C@@H]1C[C@]1(NC(=O)[C@@H]1C[C@@]2(CN1C(=O)[C@@H](NC(=O)[C@@H](NC(=O)[C@@H]1CCCCN1CCF)C1CCCCC1)C(C)(C)C)C(C)(C)C21CCC1)C(=O)NS(=O)(=O)N1CCCC1` [Compound 26, (5R,8S)-7-[(2S)-2-{[(2S)-2-cyclohexyl-2-({[(2S)-1-(2-fluoroethyl)piperidin-2-yl]carbonyl}amino)acetyl]amino}-3,3-dimethylbutanoyl]-10,10-dimethyl-N-{(1R,2S)-1-[(pyrrolidin-1-ylsulfonyl)carbamoyl]-2-vinylcyclopropyl}-7-azadispiro[3.0.4.1]decane-8-carboxamide], the IC50 worked out at 15 nM. With `C=C[C@@H]1C[C@]1(NC(=O)[C@@H]1C[C@@]2(CN1C(=O)[C@@H](NC(=O)[C@@H](NC(=O)[C@@H]1CCCCN1C(C)C)C1CCCCC1)C(C)(C)C)C(C)(C)C21CCC1)C(=O)NS(=O)(=O)N(C)OC` [Compound 55, (5R,8S)-7-[(2S)-2-{[(2S)-2-cyclohexyl-2-({[(2S)-1-isopropylpiperidin-2-yl]carbonyl}amino)acetyl]amino}-3,3-dimethylbutanoyl]-N-[(1R,2S)-1-({[methoxy(methyl)amino]sulfonyl}carbamoyl)-2-vinylcyclopropyl]-10,10-dimethyl-7-azadispiro[3.0.4.1]decane-8-carboxamide], the IC50 was 1.4 nM. For the molecule `C=C[C@@H]1C[C@]1(NC(=O)[C@@H]1C[C@@]2(CN1C(=O)[C@@H](NC(=O)[C@@H](NC(=O)[C@H]1CCCCN1C(C)C)C1CCCCC1)C(C)(C)C)C(C)(C)C21CCC1)C(=O)NS(=O)(=O)N(CC)C(C)C` [Compound 120, (5R,8S)-7-[(2S)-2-{[(2S)-2-cyclohexyl-2-({[(2R)-1-isopropylpiperidin-2-yl]carbonyl}amino)acetyl]amino}-3,3-dimethylbutanoyl]-N-[(1R,2S)-1-({[ethyl(isopropyl)amino]sulfonyl}carbamoyl)-2-vinylcyclopropyl]-10,10-dimethyl-7-azadispiro[3.0.4.1]decane-8-carboxamide], the IC50 was determined as 10 nM.

Consider `C=C[C@@H]1C[C@]1(NC(=O)[C@@H]1C[C@@]2(CN1C(=O)[C@@H](NC(=O)[C@@H](NC(=O)[C@@H]1CCCCN1CC)C1CCCCC1)C1(C)CCOCC1)C(C)(C)C21CCC1)C(=O)NS(=O)(=O)N(CC)CC` [Compound 151, (5R,8S)-7-[(2S)-2-{[(2S)-2-cyclohexyl-2-({[(2S)-1-ethylpiperidin-2-yl]carbonyl}amino)acetyl]amino}-2-(4-methyltetrahydro-2H-pyran-4-yl)acetyl]-N-[(1R,2S)-1-{[(diethylamino)sulfonyl]carbamoyl}-2-vinylcyclopropyl]-10,10-dimethyl-7-azadispiro[3.0.4.1]decane-8-carboxamide], for which the IC50 came out at 2 nM.

In the case of `C=C[C@@H]1C[C@]1(NC(=O)[C@@H]1C[C@@]2(CN1C(=O)[C@@H](NC(=O)[C@@H](NC(=O)c1ccc3occc3c1)C1CCCCC1)C(C)(C)C)C(C)(C)C21CCC1)C(=O)NS(=O)(=O)N1CCCC1` [Compound 192, (5R,8S)-7-[(2S)-2-({[(1-benzofuran-5-ylcarbonyl)amino](cyclohexyl)acetyl}amino)-3,3-dimethylbutanoyl]-10,10-dimethyl-N-{(1R,2S)-1-[(pyrrolidin-1-ylsulfonyl)carbamoyl]-2-vinylcyclopropyl}-7-azadispiro[3.0.4.1]decane-8-carboxamide], the IC50 stood at 25 nM. Regarding `C=C[C@@H]1C[C@]1(NC(=O)[C@@H]1C[C@@]2(CN1C(=O)[C@@H](NC(=O)[C@@H](NC(=O)[C@@H]1CCCCN1C(C)C)C1CCCCC1)C(C)(C)C)C(C)(C)C21CCC1)C(=O)NS(=O)(=O)N1CCCC1` [Compound 13, (5R,8S)-7-[(2S)-2-{[(2S)-2-cyclohexyl-2-({[(2S)-1-isopropylpiperidin-2-yl]carbonyl}amino)acetyl]amino}-3,3-dimethylbutanoyl]-10,10-dimethyl-N-{(1R,2S)-1-[(pyrrolidin-1-ylsulfonyl)carbamoyl]-2-vinylcyclopropyl}-7-azadispiro[3.0.4.1]decane-8-carboxamide], the concentration for half-maximal inhibition (IC50) was 3 nM. Take `C=C[C@@H]1C[C@]1(NC(=O)[C@@H]1C[C@@]2(CN1C(=O)[C@@H](NC(=O)[C@@H](NC(=O)CN1CCc3ccccc3C1)C1CCCCC1)C(C)(C)C)C(C)(C)C21CCC1)C(=O)NS(=O)(=O)N1CCCC1` [Compound 177, (5R,8S)-7-[(2S)-2-({cyclohexyl[(3,4-dihydroisoquinolin-2(1H)-ylacetyl)amino]acetyl}amino)-3,3-dimethylbutanoyl]-10,10-dimethyl-N-{(1R,2S)-1-[(pyrrolidin-1-ylsulfonyl)carbamoyl]-2-vinylcyclopropyl}-7-azadispiro[3.0.4.1]decane-8-carboxamide]: the 50% inhibitory concentration (IC50) came out at 25 nM.

On to `C=C[C@@H]1C[C@]1(NC(=O)[C@@H]1C[C@@]2(CN1C(=O)[C@@H](NC(=O)[C@@H](NC(=O)[C@@H]1CCCCN1C(C)C)C1(C)CCCCC1)C1(C)CCCCC1)C(C)(C)C21CCC1)C(=O)NS(=O)(=O)N(CC)CC` [Compound 160, (5R,8S)-N-[(1R,2S)-1-{[(diethylamino)sulfonyl]carbamoyl}-2-vinylcyclopropyl]-7-[(2S)-2-{[(2S)-2-({[(2S)-1-isopropylpiperidin-2-yl]carbonyl}amino)-2-(1-methylcyclohexyl)acetyl]amino}-2-(1-methylcyclohexyl)acetyl]-10,10-dimethyl-7-azadispiro[3.0.4.1]decane-8-carboxamide], for which the half-maximal inhibitory concentration (IC50) came to 3 nM. As for `C=C[C@@H]1C[C@]1(NC(=O)[C@@H]1C[C@@]2(CN1C(=O)[C@@H](NC(=O)[C@@H](NC(=O)[C@@H]1CCCN1C(C)C)C1CCCCC1)C(C)(C)C)C(C)(C)C21CCC1)C(=O)NS(=O)(=O)N(CC)CC` [Compound 62, (5R,8S)-7-[(2S)-2-{[(2S)-2-cyclohexyl-2-({[(2S)-1-isopropylpyrrolidin-2-yl]carbonyl}amino)acetyl]amino}-3,3-dimethylbutanoyl]-N-[(1R,2S)-1-{[(diethylamino)sulfonyl]carbamoyl}-2-vinylcyclopropyl]-10,10-dimethyl-7-azadispiro[3.0.4.1]decane-8-carboxamide], the IC50 turned out to be 1 nM. In the case of `C=C[C@@H]1C[C@]1(NC(=O)[C@@H]1C[C@@]2(CN1C(=O)[C@@H](NC(=O)OC(C)(C)C)C(C)(C)C)C(C)(C)C21CCC1)C(=O)NS(=O)(=O)N1CCCC1` [Compound 1, tert-butyl [(1S)-1-{[(5R,8S)-10,10-dimethyl-8-({(1R,2S)-1-[(pyrrolidin-1-ylsulfonyl)carbamoyl]-2-vinylcyclopropyl}carbamoyl)-7-azadispiro[3.0.4.1]dec-7-yl]carbonyl}-2,2-dimethylpropyl]carbamate], the IC50 was found to be 400 nM.

`C=C[C@@H]1C[C@]1(NC(=O)[C@@H]1C[C@@]2(CN1C(=O)[C@@H](NC(=O)[C@@H](NC(=O)[C@@H]1CCCN1C(C)=O)C1CCCCC1)C(C)(C)C)C(C)(C)C21CCC1)C(=O)NS(=O)(=O)N1CCCC1` [Compound 187, (5R,8S)-7-[(2S)-2-{[({[(2S)-1-acetylpyrrolidin-2-yl]carbonyl}amino)(cyclohexyl)acetyl]amino}-3,3-dimethylbutanoyl]-10,10-dimethyl-N-{(1R,2S)-1-[(pyrrolidin-1-ylsulfonyl)carbamoyl]-2-vinylcyclopropyl}-7-azadispiro[3.0.4.1]decane-8-carboxamide]: the half-inhibitory concentration (IC50) stood at 25 nM.
